Laboratory results: patent US7989587B2, “SSX-2 peptides presented by HLA class II molecules” (Ludwig Institute for Cancer Research Ltd., priority 1999, dated 2011)

Test system: SSX-2 specific CD4^+ T cells
Assay: Intracellular IFN-γ staining of CD4+ T cells from patient LAU672 after stimulation with SSX-2 peptide submixtures or single peptides
Type: cell-based, human
Settings: representative CD4+ T cell clone, FIG. 2A
Procedure: Generation of SSX-2 specific CD4^+ T cells. In vitro sensitization of CD4^+ T cells was carried out as described previously for CD8^+ T cells. Briefly, 1 to 2×10^6 CD4^+ T cells highly enriched from peripheral blood mononuclear cells (PBMC) by magnetic cell sorting using a miniMACS device (Miltenyi Biotec, Sunnyvale, Calif., USA) were stimulated with a mixture containing peptides spanning the entire SSX-2 protein sequence (Ayyoub et al, J Immunol 2002. 32:2292-2299) (2 μM each) in the presence of irradiated autologous cells from the CD4^− fraction in CTL medium containing rhIL-2 (10 U/ml) and IL-7 ([…]). The enriched CD4^+ T cells were cultured 2-3 weeks prior to being tested. CD4^+ T cells secreting cytokines in response to peptide stimulation were isolated by cytokine guided flow cytometry cell sorting using the cytokine secretion detection kit (Miltenyi Biotec) and cloned by limiting dilution culture in the presence of PHA (Sigma), allogenic irradiated PBMC and rhIL-2 as described (Valmori et al., 2001, Cancer Res. 61:501-512). Clones were subsequently expanded by periodic (3-4 weeks) stimulation under the same conditions.
As recombinant SSX-2 protein became available, we initiated a study to identify CD4^+ T cell epitopes. To that purpose, we prepared monocyte-derived dendritic cells (DC) from patient LAU672 by isolating CD 14+ monocytes from PBMC by magnetic cell sorting. The obtained population (containing >95% CD14^+ cells) was cultured in CTL medium containing 1,000 U/ml of rhGM-CSF and 1,000 U/ml of rhIL-4 during 6 days. At the end of the culture period, DC were incubated with recombinant SSX-2 protein for 12 hours and used to stimulate autologous CD4^+ T cells isolated from PBMC by magnetic cell sorting.
Two weeks after stimulation, culture aliquots were tested using either a pool containing all SSX-2 overlapping peptides or submixtures, each composed of 3 peptides (P1-3, P4-6 etc., FIG. 1). […]
The presence of specific CD4^+ T cells was monitored by intracellular staining with INF-γ specific antibodies (FIG. 1A). […]

For “WEKMKASEKIFYVYMKRKYEAM (SSX-2 peptide) [SSX-2 37-58]”, the “reactivity to single peptides in the submixture P4-6” value was “active peptide”.
